In test [1] the target is T1, human cloned CHRM4 receptor (M4_CHO cells) (Homo sapiens, UniProt P08173).
T1 construct: expressed in transfected cells; host or cells: CHO-K1
T1 sequence (P08173 1-479): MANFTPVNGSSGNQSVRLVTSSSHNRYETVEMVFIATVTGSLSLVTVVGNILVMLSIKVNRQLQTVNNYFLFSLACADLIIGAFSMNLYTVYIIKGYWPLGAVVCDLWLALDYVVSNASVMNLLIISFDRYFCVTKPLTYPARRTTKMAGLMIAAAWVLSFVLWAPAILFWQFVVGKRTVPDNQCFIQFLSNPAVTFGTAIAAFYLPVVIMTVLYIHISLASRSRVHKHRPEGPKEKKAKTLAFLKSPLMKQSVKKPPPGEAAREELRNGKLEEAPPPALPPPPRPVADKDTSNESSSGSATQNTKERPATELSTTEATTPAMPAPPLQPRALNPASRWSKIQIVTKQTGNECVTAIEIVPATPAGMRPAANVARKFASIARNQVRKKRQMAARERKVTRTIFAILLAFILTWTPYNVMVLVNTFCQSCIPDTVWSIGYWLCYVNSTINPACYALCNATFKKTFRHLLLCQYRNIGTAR
Put plainly: CHRM4 Ca++ Flux Assay (agonist mode, FDSS 7000EX). Format: cell-based. The settings on record: for M4 FDSS PA: Percent Activity; for EC50: geometric mean if tested more than once, read-out: M4 FDSS EC50. Summed up: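 M4_CHO cells loaded with a Ca++ dye for at least 1 h were held 60 min at room temperature in HEPES/probenecid buffer with 20 μM ATP. Ca++ flux after an 11-point compound dose, in triplicate and agonist mode, was recorded over 3 min. Four-parameter fits gave curves, with activity expressed relative to the Carbachol EC100.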

The target of test [2] is T2, human cloned CHRM3 receptor (M3_CHO cells) (Homo sapiens, UniProt P20309).
T2 construct: expressed in transfected cells; host or cells: CHO-K1
The test can be described thus: CHRM3 Ca++ Flux Assay (agonist mode, FDSS 7000EX). Format: cell-based. The settings on record: for M3 FDSS PA: Percent Activity measured to EC100 of Carbachol; for EC50: agonist mode, geometric mean if tested more than once, read-out: M3 FDSS EC50. Summed up:
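CHO-K1 cells stably expressing human M3 or M5 receptor were dye-loaded for at least 1 h in HBSS with 20 mM HEPES and 2.5 mM probenecid, then given 11-point compound doses in triplicate.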

T2 sequence (P20309 whole entry): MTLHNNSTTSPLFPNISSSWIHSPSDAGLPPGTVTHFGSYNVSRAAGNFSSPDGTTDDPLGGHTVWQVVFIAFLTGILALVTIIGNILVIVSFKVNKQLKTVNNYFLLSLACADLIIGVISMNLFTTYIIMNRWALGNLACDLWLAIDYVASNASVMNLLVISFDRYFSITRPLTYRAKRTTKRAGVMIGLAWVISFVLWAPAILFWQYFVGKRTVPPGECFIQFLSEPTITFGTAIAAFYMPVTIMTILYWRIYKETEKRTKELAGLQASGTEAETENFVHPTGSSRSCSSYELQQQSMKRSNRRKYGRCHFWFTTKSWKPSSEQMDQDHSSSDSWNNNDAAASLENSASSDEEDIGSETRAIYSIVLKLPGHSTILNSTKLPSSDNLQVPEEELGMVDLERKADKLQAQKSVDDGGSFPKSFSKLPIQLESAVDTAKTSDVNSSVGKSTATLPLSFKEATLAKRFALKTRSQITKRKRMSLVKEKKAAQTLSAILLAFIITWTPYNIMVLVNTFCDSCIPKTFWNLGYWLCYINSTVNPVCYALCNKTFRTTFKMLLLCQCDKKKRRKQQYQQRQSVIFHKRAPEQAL

By EC50 is commonly meant the concentration giving half of the maximal effect. For the compound `Fc1ccc(OC2CC3(COC3)C2)c(C2CCN([C@@H]3CCC4(C3)CN(c3cncnc3)C4)CC2)c1` (single isomer, unassigned) [Example 10F, (R)-6-(4-(2-((2-oxaspiro[3.3]heptan-6-yl)oxy)-5-fluorophenyl)piperidin-1-yl)-2-(pyrimidin-5-yl)-2-azaspiro[3.4]octane or (S)-6-(4-(2-((2-oxaspiro[3.3]heptan-6-yl)oxy)-5-fluorophenyl)piperidin-1-yl)-2-(pyrimidin-5-yl)-2-azaspiro[3.4]octane], in test [1], the “M4 FDSS PA” value is 71% and the EC50 is 4.7 nM. Besides, in test [2], the “M3 FDSS PA” value came to 0% and the EC50 was > 25 µM.

`Fc1ccc(OC2CCOCC2)c(C2CCN([C@@H]3CCC4(C3)CN(c3cncnc3)C4)CC2)c1` (single isomer, unassigned) [Example 10G, (R)-6-(4-(5-fluoro-2-((tetrahydro-2H-pyran-4-yl)oxy)phenyl)piperidin-1-yl)-2-(pyrimidin-5-yl)-2-azaspiro[3.4]octane or (S)-6-(4-(5-fluoro-2-((tetrahydro-2H-pyran-4-yl)oxy)phenyl)piperidin-1-yl)-2-(pyrimidin-5-yl)-2-azaspiro[3.4]octane]: in test [1], the “M4 FDSS PA” value is on record as 56% and the EC50 stood at 5 nM. In test [2], the “M3 FDSS PA” value came out at 0% and the EC50 is > 25 µM.

`Fc1ccc(OC2CCOCC2)c(C2CCN([C@@H]3CCC4(C3)CN(c3cncnc3)C4)CC2)c1` (single isomer, unassigned) [Example 10H, (R)-6-(4-(5-fluoro-2-((tetrahydro-2H-pyran-4-yl)oxy)phenyl)piperidin-1-yl)-2-(pyrimidin-5-yl)-2-azaspiro[3.4]octane or (S)-6-(4-(5-fluoro-2-((tetrahydro-2H-pyran-4-yl)oxy)phenyl)piperidin-1-yl)-2-(pyrimidin-5-yl)-2-azaspiro[3.4]octane]: in test [1], the “M4 FDSS PA” value is reported as 51% and the EC50 was determined as 19 nM. In addition, in test [2], the “M3 FDSS PA” value was determined as 0% and the EC50 is > 25 µM.

Turning to `COc1ccccc1C1CCN([C@H]2CCC3(C2)CN(c2ncco2)C3)CC1` (single isomer, unassigned) [Example 10I, S)-2-(6-(4-(2-methoxyphenyl)piperidin-1-yl)-2-azaspiro[3.4]octan-2-yl)oxazole or (R)-2-(6-(4-(2-methoxyphenyl)piperidin-1-yl)-2-azaspiro[3.4]octan-2-yl)oxazole], in test [1], the “M4 FDSS PA” value was 17% and the EC50 was 1070 nM. In addition, in test [2], the “M3 FDSS PA” value amounted to 0% and the EC50 is > 25 µM.

In the case of `COc1ccccc1C1CCN([C@H]2CCC3(C2)CN(c2ncco2)C3)CC1` (single isomer, unassigned) [Example 10J, (S)-2-(6-(4-(2-methoxyphenyl)piperidin-1-yl)-2-azaspiro[3.4]octan-2-yl)oxazole or (R)-2-(6-(4-(2-methoxyphenyl)piperidin-1-yl)-2-azaspiro[3.4]octan-2-yl)oxazole], in test [1], the “M4 FDSS PA” value is 67% and the EC50 came to 1 nM. Further, in test [2], the “M3 FDSS PA” value was 0% and the EC50 is > 25 µM.

In the case of `FC(F)(F)Oc1ccccc1C1CCN([C@@H]2CCC3(C2)CN(c2ncco2)C3)CC1` (single isomer, unassigned) [Example 10K, (R)-2-(6-(4-(2-(trifluoromethoxy)phenyl)piperidin-1-yl)-2-azaspiro[3.4]octan-2-yl)oxazole or (S)-2-(6-(4-(2-(trifluoromethoxy)phenyl)piperidin-1-yl)-2-azaspiro[3.4]octan-2-yl)oxazole], in test [1], the “M4 FDSS PA” value is on record as 65% and the EC50 was determined as 7 nM. In test [2], the “M3 FDSS PA” value was 0% and the EC50 is > 25 µM.

As to `FC(F)(F)Oc1ccccc1C1CCN([C@@H]2CCC3(C2)CN(c2ncco2)C3)CC1` (single isomer, unassigned) [Example 10L, (R)-2-(6-(4-(2-(trifluoromethoxy)phenyl)piperidin-1-yl)-2-azaspiro[3.4]octan-2-yl)oxazole or (S)-2-(6-(4-(2-(trifluoromethoxy)phenyl)piperidin-1-yl)-2-azaspiro[3.4]octan-2-yl)oxazole], in test [1], the “M4 FDSS PA” value came to 57% and the EC50 came to 98 nM. In addition, in test [2], the “M3 FDSS PA” value amounted to 2% and the EC50 came to 12.4 µM.

Consider `FC(F)(F)Oc1ccccc1C1CCN([C@@H]2CCC3(C2)CN(c2nncs2)C3)CC1` (single isomer, unassigned) [Example 10M, (R)-2-(6-(4-(2-(trifluoromethoxy)phenyl)piperidin-1-yl)-2-azaspiro[3.4]octan-2-yl)-1,3,4-thiadiazole or (S)-2-(6-(4-(2-(trifluoromethoxy)phenyl)piperidin-1-yl)-2-azaspiro[3.4]octan-2-yl)-1,3,4-thiadiazole], for which, in test [1], the “M4 FDSS PA” value is 67% and the EC50 turned out to be 11 nM. In addition, in test [2], the “M3 FDSS PA” value was 0% and the EC50 was > 25 µM.

As for `FC(F)(F)Oc1ccccc1C1CCN([C@@H]2CCC3(C2)CN(c2nncs2)C3)CC1` (single isomer, unassigned) [Example 10N, (R)-2-(6-(4-(2-(trifluoromethoxy)phenyl)piperidin-1-yl)-2-azaspiro[3.4]octan-2-yl)-1,3,4-thiadiazole or (S)-2-(6-(4-(2-(trifluoromethoxy)phenyl)piperidin-1-yl)-2-azaspiro[3.4]octan-2-yl)-1,3,4-thiadiazole], in test [1], the “M4 FDSS PA” value amounted to 1% and the concentration giving a half-maximal response (EC50) is > 25000 nM. Also, in test [2], the “M3 FDSS PA” value stood at 0% and the half-maximal effective concentration (EC50) was > 25 µM.

Take `FC(F)Oc1ccccc1C1CCN([C@@H]2CCC3(C2)CN(c2nncs2)C3)CC1` (single isomer, unassigned) [Example 10O, (R)-2-(6-(4-(2-(difluoromethoxy)phenyl)piperidin-1-yl)-2-azaspiro[3.4]octan-2-yl)-1,3,4-thiadiazole or (S)-2-(6-(4-(2-(difluoromethoxy)phenyl)piperidin-1-yl)-2-azaspiro[3.4]octan-2-yl)-1,3,4-thiadiazole]: in test [1], the “M4 FDSS PA” value was 67% and the EC50 is 1 nM. Also, in test [2], the “M3 FDSS PA” value is reported as 0% and the EC50 was > 25 µM.

Consider `COc1ccccc1C1CCN([C@@H]2CCC3(C2)CN(c2ncns2)C3)CC1` (single isomer, unassigned) [Example 10Q, (R)-5-(6-(4-(2-methoxyphenyl)piperidin-1-yl)-2-azaspiro[3.4]octan-2-yl)-1,2,4-thiadiazole or (S)-5-(6-(4-(2-methoxyphenyl)piperidin-1-yl)-2-azaspiro[3.4]octan-2-yl)-1,2,4-thiadiazole], for which, in test [1], the “M4 FDSS PA” value came to 71% and the EC50 stood at 8 nM. Also, in test [2], the “M3 FDSS PA” value came out at 0% and the EC50 is > 25 µM.

As to `COc1ccccc1C1CCN([C@@H]2CCC3(C2)CN(c2ncns2)C3)CC1` (single isomer, unassigned) [Example 10R, (R)-5-(6-(4-(2-methoxyphenyl)piperidin-1-yl)-2-azaspiro[3.4]octan-2-yl)-1,2,4-thiadiazole or (S)-5-(6-(4-(2-methoxyphenyl)piperidin-1-yl)-2-azaspiro[3.4]octan-2-yl)-1,2,4-thiadiazole], in test [1], the “M4 FDSS PA” value is on record as 36% and the EC50 turned out to be 122 nM. In test [2], the “M3 FDSS PA” value was 0% and the EC50 is > 25 µM.

With `O=C(N1CC2(CC[C@@H](N3CCC(c4cc(F)ccc4OC4CC5(COC5)C4)CC3)C2)C1)C1(F)CC1` (single isomer, unassigned) [Example 11A, (R)-(6-(4-(2-((2-oxaspiro[3.3]heptan-6-yl)oxy)-5-fluorophenyl)piperidin-1-yl)-2-azaspiro[3.4]octan-2-yl)(1-fluorocyclopropyl)methanone or (S)-(6-(4-(2-((2-oxaspiro[3.3]heptan-6-yl)oxy)-5-fluorophenyl)piperidin-1-yl)-2-azaspiro[3.4]octan-2-yl)(1-fluorocyclopropyl)methanone], in test [1], the “M4 FDSS PA” value is recorded as 45% and the EC50 came out at 38 nM. Further, in test [2], the “M3 FDSS PA” value came out at 0% and the EC50 was > 25 µM.

For `O=C(N1CC2(CC[C@@H](N3CCC(c4cc(F)ccc4OC4CC5(COC5)C4)CC3)C2)C1)C1(F)CC1` (single isomer, unassigned) [Example 11B, (R)-(6-(4-(2-((2-oxaspiro[3.3]heptan-6-yl)oxy)-5-fluorophenyl)piperidin-1-yl)-2-azaspiro[3.4]octan-2-yl)(1-fluorocyclopropyl)methanone or (S)-(6-(4-(2-((2-oxaspiro[3.3]heptan-6-yl)oxy)-5-fluorophenyl)piperidin-1-yl)-2-azaspiro[3.4]octan-2-yl)(1-fluorocyclopropyl)methanone], in test [1], the “M4 FDSS PA” value stood at 51% and the EC50 was 2 nM. Further, in test [2], the “M3 FDSS PA” value amounted to 0% and the EC50 is > 25 µM.
